Results published in PubChem BioAssay AID248 (DTP/NCI, 2004).
Inconclusive results and toxic doses are left out. Rule as the data show it: active = T/C of 150% or more; inactive = T/C below 125%.

System: L1210 leukemia ip in BDF1 mice, survival T/C
Assay: NCI In Vivo Anticancer Drug Screen. Data for tumor model L1210 Leukemia (intraperitoneal) in B6D2F1 (BDF1) mice
Conditions: endpoint: mean survival time, higher = longer survival
How it was run: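 Mice bearing the transplanted tumor received compound or vehicle. Survival of the treated group was divided by that of the vehicle-treated control group to give the ratio.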

[1] = dose: 100.0 mg/kg/injection, schedule: Q01DX001 (ip), vehicle: carboxymethylcellulose (CMC)
[2] = dose: 200.0 mg/kg/injection, schedule: Q01DX001 (ip), vehicle: carboxymethylcellulose (CMC)
[3] = dose: 400.0 mg/kg/injection, schedule: Q01DX001 (ip), vehicle: carboxymethylcellulose (CMC)
[4] = dose: 100.0 mg/kg/injection, schedule: Q01DX009 (ip), vehicle: Klucel (hydroxypropylcellulose) (HPC)
[5] = dose: 200.0 mg/kg/injection, schedule: Q01DX009 (ip), vehicle: Klucel (hydroxypropylcellulose) (HPC)
[6] = dose: 400.0 mg/kg/injection, schedule: Q01DX009 (ip), vehicle: Klucel (hydroxypropylcellulose) (HPC)
[7] = dose: 100.0 mg/kg/injection, schedule: Q01DX001 (ip), vehicle: Klucel (hydroxypropylcellulose) (HPC)
[8] = dose: 200.0 mg/kg/injection, schedule: Q01DX001 (ip), vehicle: Klucel (hydroxypropylcellulose) (HPC)
[9] = dose: 400.0 mg/kg/injection, schedule: Q01DX001 (ip), vehicle: Klucel (hydroxypropylcellulose) (HPC)
[10] = dose: 100.0 mg/kg/injection, schedule: Q01DX001 (ip), vehicle: saline
[11] = dose: 200.0 mg/kg/injection, schedule: Q01DX001 (ip), vehicle: saline
[12] = dose: 400.0 mg/kg/injection, schedule: Q01DX001 (ip), vehicle: saline
[13] = dose: 50.0 mg/kg/injection, schedule: Q01DX001 (ip), vehicle: saline

Measured: T/C

CN1C(=O)CC(NC(=O)OCc2ccccc2)C1=O (centres undefined)
inactive: dose: 100.0 mg/kg/injection, schedule: Q04DX003 (ip), vehicle: saline with Tween-80 95 % of control | dose: 200.0 mg/kg/injection, schedule: Q04DX003 (ip), vehicle: saline with Tween-80 103 % of control | dose: 400.0 mg/kg/injection, schedule: Q04DX003 (ip), vehicle: saline with Tween-80 96 % of control

Nc1ccc(CCO)cc1
inactive: dose: 100.0 mg/kg/injection, schedule: Q04DX003 (ip), vehicle: saline 105 % of control | dose: 200.0 mg/kg/injection, schedule: Q04DX003 (ip), vehicle: saline 96 % of control | dose: 400.0 mg/kg/injection, schedule: Q04DX003 (ip), vehicle: saline 96 % of control

CC(C)NC(=O)Oc1cccc(NC(=O)N(C)C)c1
inactive: dose: 100.0 mg/kg/injection, schedule: Q01DX009 (ip), vehicle: saline with Tween-80 93 % of control | dose: 200.0 mg/kg/injection, schedule: Q01DX009 (ip), vehicle: saline with Tween-80 93 % of control | dose: 400.0 mg/kg/injection, schedule: Q01DX009 (ip), vehicle: saline with Tween-80 93 % of control

CC(C)CCOC(=O)C1(C)OC1c1ccccc1 (centres undefined)
inactive: dose: 100.0 mg/kg/injection, schedule: Q04DX002 (ip), vehicle: saline 101 % of control | dose: 200.0 mg/kg/injection, schedule: Q04DX002 (ip), vehicle: saline 97 % of control | dose: 400.0 mg/kg/injection, schedule: Q04DX002 (ip), vehicle: saline 93 % of control

COc1ccc(Nc2cc(N)nc(N)n2)cc1
inactive: dose: 25.0 mg/kg/injection, schedule: Q01DX Z (ip), vehicle: methylcellulose (MC) 93 % of control | dose: 50.0 mg/kg/injection, schedule: Q01DX Z (ip), vehicle: methylcellulose (MC) 87 % of control

COc1ccc2c(c1)CSC(c1ccccc1)C2=O (centres undefined)
inactive: dose: 100.0 mg/kg/injection, schedule: Q04DX002 (ip), vehicle: Klucel (hydroxypropylcellulose) (HPC) 105 % of control | dose: 200.0 mg/kg/injection, schedule: Q04DX002 (ip), vehicle: Klucel (hydroxypropylcellulose) (HPC) 97 % of control | dose: 400.0 mg/kg/injection, schedule: Q04DX002 (ip), vehicle: Klucel (hydroxypropylcellulose) (HPC) 90 % of control

ClC(=Nc1ccccc1)c1cc(Cl)ccn1
inactive: [1] 92 % of control | [2] 94 % of control | [3] 100 % of control

CC(=O)c1ccc(CC23CC4CC(CC(C4)C2)C3)cc1
inactive: [4] 99 % of control | [5] 90 % of control | [6] 94 % of control

COc1ccc(C(N)=S)c2ccccc12
inactive: [7] 105 % of control | [8] 102 % of control | [9] 102 % of control

O=C1c2ccccc2-c2cc(Cl)c(N=Cc3ccc4c(c3)OCO4)cc21
inactive: [1] 98 % of control | [2] 102 % of control | [3] 109 % of control

O=C(Nc1ccc2c(c1)C(=O)c1ccccc1-2)c1ccccc1
inactive: dose: 100.0 mg/kg/injection, schedule: Q01DX001 (ip), vehicle: saline with Tween-80 88 % of control | dose: 200.0 mg/kg/injection, schedule: Q01DX001 (ip), vehicle: saline with Tween-80 88 % of control | dose: 400.0 mg/kg/injection, schedule: Q01DX001 (ip), vehicle: saline with Tween-80 88 % of control

O=C1NC(c2ccccc2)(c2ccccc2)C(=O)N1CN1CCN(CN2C(=O)NC(c3ccccc3)(c3ccccc3)C2=O)CC1
inactive: dose: 6.25 mg/kg/injection, schedule: Q01DX009 (ip), vehicle: saline sonified 99 % of control | dose: 12.5 mg/kg/injection, schedule: Q01DX009 (ip), vehicle: saline sonified 100 % of control | dose: 25.0 mg/kg/injection, schedule: Q01DX009 (ip), vehicle: saline sonified 94 % of control | [7] 108 % of control | [8] 92 % of control | [9] 92 % of control

CC1CN(C2CC3OCC3O2)C(=O)NC1=O (centres undefined)
inactive: [10] 103 % of control | [11] 98 % of control | [12] 98 % of control

Clc1nc(Cl)c2c(n1)NCCN2
inactive: dose: 50.0 mg/kg/injection, schedule: Q01DX009 (ip), vehicle: Klucel (hydroxypropylcellulose) (HPC) 106 % of control | [4] 103 % of control

CON(C)C(=O)N1c2ccccc2Sc2ccccc21
inactive: dose: 25.0 mg/kg/injection, schedule: Q04DX002 (ip), vehicle: saline with Tween-80 88 % of control | dose: 50.0 mg/kg/injection, schedule: Q04DX002 (ip), vehicle: saline with Tween-80 95 % of control | dose: 100.0 mg/kg/injection, schedule: Q04DX002 (ip), vehicle: saline with Tween-80 103 % of control | dose: 200.0 mg/kg/injection, schedule: Q04DX002 (ip), vehicle: saline with Tween-80 95 % of control

COc1ccc(Cl)cc1NC(=O)C(Br)C(Br)c1ccccc1 (centres undefined)
inactive: [4] 100 % of control | [5] 97 % of control | [6] 86 % of control

O=C(Nc1cccc2cnccc12)c1ccc(C(=O)Nc2cccc3cnccc23)cc1
inactive: [10] 98 % of control | [11] 104 % of control | [12] 104 % of control

CCCCCCCCCCOc1ccccc1C(=O)NCCN1CCCC1
inactive: dose: 15.0 mg/kg/injection, schedule: Q01DX015 (ip), vehicle: saline 88 % of control | dose: 30.0 mg/kg/injection, schedule: Q01DX015 (ip), vehicle: saline 91 % of control | dose: 60.0 mg/kg/injection, schedule: Q01DX015 (ip), vehicle: saline 91 % of control | dose: 120.0 mg/kg/injection, schedule: Q01DX015 (ip), vehicle: saline 88 % of control

CCCCCCCCC[n+]1cccc(C#N)c1
inactive: dose: 18.75 mg/kg/injection, schedule: Q01DX009 (ip), vehicle: saline 90 % of control | dose: 37.5 mg/kg/injection, schedule: Q01DX009 (ip), vehicle: saline 88 % of control | dose: 37.5 mg/kg/injection, schedule: Q04DX003 (ip), vehicle: acetone 100 % of control | dose: 75.0 mg/kg/injection, schedule: Q01DX001 (ip), vehicle: saline 100 % of control | dose: 75.0 mg/kg/injection, schedule: Q01DX009 (ip), vehicle: saline 90 % of control | dose: 75.0 mg/kg/injection, schedule: Q04DX003 (ip), vehicle: acetone 97 % of control | dose: 150.0 mg/kg/injection, schedule: Q01DX001 (ip), vehicle: saline 102 % of control | dose: 150.0 mg/kg/injection, schedule: Q04DX003 (ip), vehicle: acetone 105 % of control

CC(C)C1CCC2(CC1)CCN(CCCN(C)C)CC2
inactive: [13] 93 % of control | [10] 113 % of control

CCCC[Si](C)(C)CCCC
inactive: [10] 103 % of control | [11] 105 % of control | [12] 100 % of control

NC(=O)c1ccccc1NC(=O)Nc1ccccc1F
inactive: [4] 105 % of control | [5] 107 % of control | [6] 100 % of control

CCCC/C(=N\OC(=O)N(C)C)c1ccccc1
inactive: [10] 103 % of control | [11] 98 % of control | [12] 98 % of control

O=c1nc2c3ncn(Cc4ccccc4)c3nnn2[nH]1
inactive: [1] 100 % of control | [2] 106 % of control | [3] 100 % of control

CCC(CC)C(O)(C(=O)O)C(CC)CC
inactive: [10] 95 % of control | [11] 89 % of control | [12] 97 % of control

COc1cccc(/C=N/Nc2nnc(N/N=C/c3cccc(OC)c3OC)c3ccccc23)c1OC
inactive: [13] 92 % of control | [10] 92 % of control | [11] 92 % of control | [12] 94 % of control

CC(C)(C)c1cc(/C=N/NC(=O)COCC(=O)N/N=C/c2cc(C(C)(C)C)c(O)c(C(C)(C)C)c2)cc(C(C)(C)C)c1O
inactive: [4] 95 % of control | [5] 103 % of control | [6] 92 % of control
